Results published in patent publication US7122541B2, “Methods of inhibiting metastases” (Rhode Island Hospital, priority 2001, dated 2006).
Entries after “also recorded” stand apart in the source; their conditions may differ.

Columns and labels:
[1] = test system: LS-180 hepatic metastases; test: Liver metastases model: splenic injection of LS-180 cells in nude mice, IP treatment; format: in vivo; conditions: for Serum CEA: mean ± SE, n = 20, after 3 weeks IP Taurolidine; for reduction in serum CEA levels vs control: 3 weeks IP therapy; for reduction in liver weight vs control: daily IP, 5 days/week, 3 weeks
Experimental: General anesthesia was induced using 400 μl choral hydrate (2%). Using sterile conditions, a vertical paramedian incision was used to expose the spleen. An intrasplenic injection of 1×10^5 tumor cells in 0.4 ml of serum free medium was performed, followed by splenectomy using hemoclips for vascular control. The incision was then closed using surgical staples. Beginning post injections days 2 or 5, mice received IP injections of 0.45% normal saline (n=10 per group) or Taurolidine (n=20 per group). Taurolidine (Boehringer Ingelheim, Germany) was given as a daily 0.5 ml IP injection of 2% solution ([…]) for 5 consecutive days per week for a total of 3 weeks. The day following the last treatment of Taurolidine or 0.45% NS, the mice were sacrificed and examined for gross tumor. Blood was drawn from the right ventricle, immediately centrifuged, and serum collected for CEA assays. The livers were weighed and fixed in HistoFix and representative sections taken for H&E microscopic examination. In addition, 9 mice (n=3 per group) were used to study the tumor model. At days 5, 10 and 15, mice that received a splenic tumor cell injection without any further intervention were sacrificed to assess tumor burden at varying time points. The livers were assessed for gross tumor and submitted in toto for histologic examination.

LS-180 cells [2] = test: MTT cell proliferation assay; format: cell-based, human
Experimental: (§1) Cell proliferation was assessed using a standard MTT (3,(4,5-dimethylthiazol-2yl)2,5-diphenyltetrazolium bromide; Sigma, St. Louis, Mo.) dye at 570 nm. Cells were into seeded in 96-well microtiter plates (2×10^5 cells/well) using 200 μl of medium. After a 12 hour incubation, Taurolidine was applied for a period of 6, 9, 12, 24 or 48 hours. At each time point 20 μl of MTT (5 mg/ml) was added and the cells were incubated at 37° C. for an additional 30 minutes. The medium was removed and the dye was eluted using acidic isopropyl alcohol (0.04N HCl). Cell viability was measured using crystal violet dye. Cells were seeded and treated with Taurolidine as described for the MTT assay. The medium was then removed and the cells were stained and fixed using a crystal violet staining solution containing 0.75% Crystal violet, 50% EtOH, 0.25% NaCl, and 1.75% formaldehyde for 10 minutes at room temperature. After staining and fixation the cells were rinsed with water and air-dried. The crystal violet dye was eluted using a 1% SDS in PBS solution and the absorbance was measured at 540 nm in a microtiter plate reader.
(§2) The human LS-180 colon cancer cell line was incubated with 25, 50, 75, and 100 μm concentrations of Taurolidine, and an MTT assay was performed at 6, 9, 12, 24 and 48 hours after Taurolidine administration. An accompanying crystal violet assay was performed under the same conditions. […] Flow cytometry was also performed using bromodeoxyuridine (BrdU) to help quantify the proportion of cells in S phase and evaluate cell proliferation.

LS-180 cells [3] = test: Flow cytometry (propidium iodide / BrdU) cell cycle and DNA content analysis; format: cell-based, human
Experimental: FIGS. 4A–D are histograms showing that Taurolidine induces apoptosis in human colon cancer cells. In FIGS. 4A–C, LS-180 cells were treated with 100, 200, and 400 μM concentrations of Taurolidine. After 24 hours the cells were harvested by trypsinization, labeled with propidium iodide, and their DNA content was measured by flow cytometry. The percentage of subdiploid DNA content, representing DNA degradation in apoptotic cells, is shown. […] LS-180 cells were treated with 100, 200, and 400 -μM concentrations of Taurolidine and harvested by trypsinization at 12, 24, and 36 hours. Caspase-3 activity was assessed by its ability to cleave the DEVD-pNA colorimetric substrate.
LS-180 cells were cultured in 100 mm Falcon plates (5×10^6 cells/plate) for 12 hours to become adherent. Cells were incubated for 12, 14 and 48 hours with complete medium (control) or 50, 100 and […] concentrations of Taurolidine. The cells were then treated with 10 μm bromodeoxyuridine (BrdU) for 30 minutes, and both floating and adherent cells were harvested for fixation in 70% ethanol. The DNA was denatured using 2N HCl and labeled with FITC-conjugated anti-BrdU antibody (anti-bromodeoxyuridine-fluorescein monoclonal antibody; Roche, Indianapolis, Ind.). Before analysis by flow cytometry the cells were treated with ribonuclease (Dnase-free ribonuclease, Roche, Indianapolis, Ind.) and propidium iodide (Sigma, St. Louis, Mo.). FACs analysis was performed on a FACscan flow cytometer (Becton Dickinson, N.J.).

caspase-3 = test: Caspase-3 colorimetric assay (DEVD-pNA substrate); format: cell-based, human
Experimental: To measure caspase activity, cells were incubated in six-well Falcon plates (1×10^6 cells/well) and harvested by trypsinization. The cells were then pelleted and lysed as per the manufacturer's recommendation (MBL, Nagoya, Japan) and the cytosolic protein concentration was quantified using a BCA protein assay reagent (Pierce, Rockford, Ill.). The caspase-3 assay was performed in a 96-well microtiter plate using 100 μg of protein and 5 μl of 4 mM DEVD-pNA Substrate (CPP32/caspase-3 Colorimetric Protease Assay Kit; MBL, Nagoya, Japan). The protein and reagent were then incubated for 2 hours at 37° C. A background reading from cell lysates and buffer without DEVD-pNA substrate was subtracted from samples; the assay was performed in triplicate. Samples were read at 405 nm in a microtiter plate reader.
Caspase Inhibitor I (Z-VAD-fink; z-Val-Ala-Asp(OMe)-CH2F, Calbiochem; La Jolla, Calif.) was used from a 21 mM stock in DMSO stored at −20° C. until use and then diluted into tissue culture medium immediately prior to its application. After a 2-hour incubation with the caspase inhibitor, cells were treated with Taurolidine. […] Untreated cells received an equivalent dilution of DMSO.

[4] = Lactate dehydrogenase (LDH) release cytotoxicity assay; format: cell-based, human; conditions: human, LS-180 cells
Experimental: (§3) Cytotoxicity was quantified using a standard lactate dehydrogenase cytotoxicity assay (Cytotoxicity Detection Kit, Roche). LS-180 cells (2.5×10^5 cell/well) were cultured in Falcon 96-well microtiter plates in a humidified incubator at 37° C., 5% CO2. […] Triton X-100 (1% final concentration) was used to lyse cells and determine the maximum release of LDH enzyme (high control). Cytotoxicity was determined as per the manufacturer's protocol, and the absorbance was measured at 490 nm in a microtiter plate reader.
(§4) Cytotoxicity was assessed by measuring lactate dehyhdrogenase (LDH) activity released from the cytosol of damaged cells. […] Taurolidine, even at a 400 μm concentration, produced minimal cytotoxic effects on LS-180 cells. […] This is in contradistinction to previously reported in vitro studies of Taurolidine on malignant cell lines.

LS-180 cells [5] = test: as above; format: cell-based, human; conditions: 100, 200 and 400 μM, 24 hours
Experimental: as §3, §4

LS-180 cells [6] = test: WST-8 tetrazolium cell number assay; conditions: dose-dependent; concentration not given
LS-180 cells [7] = test: Light microscopy / Hoechst 33258 staining for apoptotic morphology; format: cell-based, human; conditions: even at 400 μm; light microscopy or Hoechst 33258
LS-180 cells [8] = test: Crystal violet cell viability / adherent cell assay; format: cell-based, human
Experimental: as §1, §2

[9] = treatment begun 2 days after splenic tumor injection
[10] = treatment begun 5 days after splenic tumor injection
[11] = dose-dependent, concentration not given

Q: Which results are given for `O=S1(=O)CCN(CN2CCS(=O)(=O)NC2)CN1` [Taurolidine, bis(1,1-dioxoperhydro-1,2,4-thiadiazinyl-4)methane]?
A: tolerability / deaths during therapy ([1]; 10-mg per day IP, five consecutive days x 3 weeks): well tolerated, resulting in no deaths of animals; also recorded: all mice tolerated the full 3-week course of treatment; Serum CEA ([1]; Day 2 group): 7.73 ± 0.52 ng/mL; Serum CEA ([1]; Day 5 group): 11.88 ± 1.97 ng/mL; gross hepatic tumor burden vs control ([1]; daily IP Taurolidine for 3 weeks, begun day 2 or 5): dramatic reduction in hepatic tumor involvement; also recorded: dramatic reduction of tumor burden; also recorded: striking decrease in tumor burden; also recorded: marked reduction in tumor burden; also recorded: marked decrease in tumor burden; reduction in serum CEA levels vs control [1, 9]: 69%; reduction in liver weight vs control [1, 9]: 18%; reduction in serum CEA levels vs control [1, 10]: 78%; reduction in liver weight vs control [1, 10]: 22%; decrease by MTT assay (LS-180 cells [2]; 100 μm Taurolidine, present as early as 9 hours after exposure): 40–50%; reduction in cell number (MTT assay) (LS-180 cells [2]; 100 μm, after 24 hours): 40–50%; decrease in adherent tumor cells (MTT assay) (LS-180 cells [2]; [11]): 60%; sub-G1 peak by propidium iodide flow cytometry (LS-180 cells [3]; 50 and 100 μm, 24 hours): failed to demonstrate a sub-GI peak; also recorded: failed to demonstrate a sub-G1 peak; sub-diploid DNA peak (DNA degradation in apoptotic cells) (LS-180 cells [3]; 100, 200 and 400 μM, 24 hours): dose dependent increase; cell cycle progression / proliferation (flow cytometry, BrdU) (LS-180 cells [3]; treated vs untreated cells, 50 and 100 μm): no significant change in cell cycle progression; also recorded: no significant change in proliferation or cell cycle; caspase-3 activity (caspase-3; 100, 200 and 400 μM, 12, 24 and 36 hours): dose-dependent increase; also recorded: dose dependent increase; cytotoxicity ([4]; 50, 100 and 400 μm, 12 or 24 hours, read-out: percent cytotoxicity (LDH release), all cases): < 2%; cytotoxicity at 24 h, 50 µM ([4]; 50 μm, 24 hours, read-out: percent cytotoxicity (LDH release)): -0.07%; cytotoxicity at 24 h, 100 µM ([4]; 100 μm, 24 hours, read-out: percent cytotoxicity (LDH release)): 0.15%; cytotoxicity at 24 h, 400 µM ([4]; 400 μm, 24 hours, read-out: percent cytotoxicity (LDH release)): 1.58%; cytolysis (culture medium LDH activity) (LS-180 cells [5]): no significant cytolysis; decrease in tumor cell viability (WST-8 assay) (LS-180 cells [6]): 85%; apoptotic morphology (LS-180 cells [7]): failed to demonstrate cell shrinkage, cytoplasmic condensation, nuclear fragmentation or blebbing; cell adherence (crystal violet assay) (LS-180 cells [8]; 10-400 μM Taurolidine): loss of cell adherence; reduction in cell number (crystal violet assay) (LS-180 cells [8]; 100 μm, after 24 hours): 40–50%; decrease in adherent tumor cells (crystal violet assay) (LS-180 cells [8]; [11]): 60%; decrease in tumor cell viability (crystal violet assay) (LS-180 cells [8]; [11]): 85%

Q: What does the source list for z-Val-Ala-Asp(OMe)-CH2F [Z-VAD-fmk]?
A: caspase-3 activity in Taurolidine-treated cells after caspase inhibition (caspase-3; 50 μM Z-VAD-fmk before 100, 200, 400 μM Taurolidine, vs untreated LS-180 cells): no significant increase in caspase-3 activity; loss of cell adherence of Taurolidine-treated cells after caspase inhibition (crystal violet) (LS-180 cells [8]; 50-uM Z-VAD-fmk before Taurolidine): not affected
